Counter-ions that a name gives are not always drawn.
Experiments:
Format in all cases: functional
ACHN = assay: Cytotoxicity against human ACHN cells assessed as cell growth inhibition measured after 48 hrs by SRB assay
MDA-MB-231 = assay: Cytotoxicity against human MDA-MB-231 cells assessed as cell growth inhibition measured after 48 hrs by SRB assay; details: MDA-MB-231, 48 h
NCI-H23 = assay: Cytotoxicity against human NCI-H23 cells assessed as cell growth inhibition measured after 48 hrs by SRB assay; details: NCI-H23, 48 h
HCT-15 = assay: Cytotoxicity against human HCT15 cells assessed as cell growth inhibition measured after 48 hrs by SRB assay; details: HCT-15, 48 h
NUGC-3 = assay: Cytotoxicity against human NUGC3 cells assessed as cell growth inhibition measured after 48 hrs by SRB assay; details: NUGC-3, 48 h
PC-3 = assay: Cytotoxicity against human PC3 cells assessed as cell growth inhibition measured after 48 hrs by SRB assay; details: PC-3, 48 h

| SMILES | GI50 (ACHN) [µM] | GI50 (MDA-MB-231) [µM] | GI50 (NCI-H23) [µM] | GI50 (HCT-15) [µM] | GI50 (NUGC-3) [µM] | GI50 (PC-3) [µM] |
| --- | --- | --- | --- | --- | --- | --- |
| COc1cccc2c1C(=O)c1c(O)c3c(c(O)c1C2=O)C[C@@](O)(C(=O)CO)C[C@@H]3O[C@H]1C[C@H](N)[C@H](O)[C@H](C)O1 [DOXORUBICIN HYDROCHLORIDE] | 0.13 | 0.15 | 0.14 | 0.14 | 0.15 | 0.14 |
| CC[C@H](C)[C@@H](CCCCCCC/C=C/C=C/CCc1cc(O)cc(O)c1Cc1c(O)cc(C)oc1=O)O[C@H]1O[C@H](CO)[C@@H](O)[C@H](O)[C@H]1O | > 50 | > 50 | > 50 | > 50 | > 50 | > 50 |
| CC[C@H](C)[C@@H](CCCCCCC/C=C/C=C/CCc1cc(O)cc(O)c1)O[C@H]1O[C@H](CO)[C@@H](O)[C@H](O)[C@H]1O | 31 | 25 | 24 | 19 | 9.3 | 21 |

From ChEMBL document CHEMBL4414637, “Resorcinosides A and B, Glycosylated Alkylresorcinols from a Marine-Derived Strain of the Fungus Penicillium janthinellum” (2019)
